In patent US9335332B2, “Nicotinamide phosphoribosyltransferase (NMPRTase) inhibitor for glioma therapy” (COUNCIL OF SCIENTIFIC AND INDUSTRIAL RESEARCH, priority 2010, dated 2016):
pIC50: −log10 of the molar value.

What was measured:
[1] = molecular target: T1, NMPRTase (Homo sapiens, UniProt P43490); assay: NMPRTase assay: conversion of 14[C]-nicotinamide to 14[C]-NAD by U87 cell extract; type: biochemical; conditions: 14[C]-NAD formed, FIG. 2C, 3A and 3B
T1 construct: To prepare cytoplasmic extract, as source of NMPRTase, logarithmically growing U87 glioblastoma cells were collected; endogenous in cells; host or cells: U87 glioblastoma cells (cytoplasmic extract)
Description: In accordance with the inventive steps, the measurement of NMPRTase activity was carried. To prepare cytoplasmic extract, as source of NMPRTase, logarithmically growing U87 glioblastoma cells were collected by centrifugation and washed three times with Ca^2+, Mg^2+ free PBS. The cells pellet (2 to 3×10^7 cells) was suspended and lysed in 1 mL of 0.01 M NaH2PO4 (pH 7.4) by one round of freezing and slow thawing. The clear supernatant was recovered on ice after centrifugation at 23,000×g at 0° C. for 90 mins. […] of 1% protamine sulfate were added per ml of supernatant and incubated for 15 min on ice, followed by centrifugation at 23,000×g at 0° C. for 30 mins. The final supernatant was stored in small aliquots at −80° C. The NMPRTase activity was determined in 0.5 ml of reaction solution consisting of 5 mM MgCl2, 2 mM ATP, 0.5 mM phosphoribosyl PPI (pyrophosphate), 0.1 mM 14[C]-nicotinamide (specific activity: 50 mCi/mmol; American Radiolabeled Chemicals, Inc.) and 50 mM Tris (pH 8.8) at 37° C. […] The precipitate was removed by centrifugation at 2500×g at 4° C. for 10 min and the supernatant was stored at −20° C. The 14[C]-labeled components in the cell extracts were separated and identified using thin-layer chromatography (cellulose/1 M ammonium sulphate:ethanol (3:7). The chromatograms were run and exposed to imaging plates (Fuji) read using Phosphoimger (Fuji) the 14[C]-labeled NAD was quantified using Alpha Innotec software.
In accordance with the inventive steps, selected compounds were tested for inhibition of NMPRTase activity. Measurement of the ability of NMPRTase to convert 14[C]-nicotinamide to 14[C]-NAD was carried out. Most of the glioblastoma tissues have elevated levels of transcript and protein of PBEF1/NMPRTase. To prepare NMPRTase enzyme, firstly a panel of glioma derived cell lines was tested for NMPRTase transcript and protein levels.

[2] = test system: glioma derived cell line U87; assay: MTT viability assay, U87 cells; type: cell-based; conditions: Homo sapiens, U-87 MG, MTT at 48 hrs after addition of compounds
Description: Viability was measured by MTT assay at 48 hrs after addition of indicated compounds to U87 cells. The assays were carried out in triplicates and the mean value for each time point was used to generate the graph.
In accordance with the inventive steps, MTT assay was performed (Das, S.; El-Deiry, W. S.; Somasundaram, K. Efficient growth inhibition of HPV 16 E6-expressing cells by an adenovirus-expressing p53 homologue p73beta. Oncogene 2003, 22, 8394-402). A total of 1.5×10^3 cells/well were plated in a 96-well plate. After 24 h of plating, the cells were treated with indicated amounts of compounds. A measure of 20 μL (5 mg/mL) of MTT was added to each well 48 hrs after the addition of the compounds. MTT is a tetrazolium salt that is converted by living cells into purple formazan crystals. The medium was removed from the wells 3 hrs after MTT addition and 200 μL of DMSO (Dimethyl sulfoxide) was added to dissolve the formazan crystals, and then the absorbance was measured at 550 nm in an ELISA reader.
In accordance with the inventive steps, to correlate the NMPRTase inhibition property with cell growth inhibition, the ability of these compounds to inhibit the growth of a glioma derived cell line U87 was tested, which has elevated levels of PBEF1.

[3] = molecular target: T1, NMPRTase; conditions: reference compounds, Table 1A; cited from earlier work

T1 sequence (P43490 whole entry): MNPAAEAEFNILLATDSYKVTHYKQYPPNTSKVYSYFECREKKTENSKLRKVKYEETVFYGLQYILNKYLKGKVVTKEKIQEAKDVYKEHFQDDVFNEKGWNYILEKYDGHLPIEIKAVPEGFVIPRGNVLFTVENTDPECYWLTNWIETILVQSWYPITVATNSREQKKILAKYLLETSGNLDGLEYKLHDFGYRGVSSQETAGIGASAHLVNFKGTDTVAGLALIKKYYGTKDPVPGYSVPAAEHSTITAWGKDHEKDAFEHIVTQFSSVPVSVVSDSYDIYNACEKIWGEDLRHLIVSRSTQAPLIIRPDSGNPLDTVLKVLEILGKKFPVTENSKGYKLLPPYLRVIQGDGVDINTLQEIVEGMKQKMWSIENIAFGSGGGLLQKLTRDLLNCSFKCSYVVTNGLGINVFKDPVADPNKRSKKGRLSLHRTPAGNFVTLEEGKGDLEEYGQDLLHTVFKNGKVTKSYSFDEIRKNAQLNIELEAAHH

Compound | Inhibition of NMPRTase activity [1] | pIC50 [2] | Biochemical energy of binding [3] [kJ/mol]
O=C1c2cc(S(=O)(=O)[O-])ccc2-c2ccc(S(=O)(=O)[O-])cc21.[K+].[K+] [Compound 1, Dipotassium 9-oxo-9H-fluorene-2,7-disulfonate] | did not inhibit NMPRTase activity | 3.47 | –
CCOC(=O)c1nn(-c2ccccc2)c(=O)c2c(N)c(C#N)c(-c3ccco3)cc12 [Compound 2, Ethyl-5-amino-6-cyano-7-(2-furyl)-4-oxo-3-phenyl-3,4-dihydro-1-phthalazinecarboxylate] | – | < 3.30 | –
CC(=O)c1cc(-n2nc3ccccc3n2)c(O)c(-n2nc3ccccc3n2)c1O [Compound 3, 1,[3,5-Di(2H-1,2,3-benzotriazol-2-yl)-2,4-dihydroxyphenyl]ethan-1-one] | – | < 3.30 | –
CC12OC(c3ccccc3)=CC(c3ccccc3)=C1C(c1ccccc1)=CC2=O (centres unmarked) [Compound 4, 7a-methyl-2,4,5-triphenyl-7,7a-dihydrocyclopenta[b]pyran-7-one] | inhibited NMPRTase activity | < 3.30 | –
Nc1c(-c2ccc3ccccc3n2)c2ccc([N+](=O)[O-])cc2c(=O)n1Cc1ccccc1 [Compound 5, 3-amino-2-benzyl-7-nitro-4-(2-quinolyl)-1,2-dihydroisoquinolin-1-one] | inhibited NMPRTase activity | 3.49 | –
Cc1nn(-c2ccccc2)nc1CNC(=O)C1=Cc2ccccc2OC1 [Compound 6, N-[(5-methyl-2-phenyl-2H-1,2,3-triazol-4-yl)methyl]-2H-chromene-3-carboxamide] | – | < 3.30 | –
O=C(/C=C/c1cccnc1)NCCCCC1CCN(C(=O)c2ccccc2)CC1 [FK866, reference compound] | inhibited efficiently | 3.77 | -38.7
O=C(O)c1cccnc1 [Niacin, reference compound] | – | < 3.30 | –
NC(=O)c1cccnc1 [Nicotinamide] | – | < 3.30 | –
